According to publication PMC10818546, “CYP1-Activation and Anticancer Properties of Synthetic Methoxylated Resveratrol Analogues” (Molecules, 2024):
pIC50: −log10 of the molar value. Read-outs that look alike come from different tables or passages of the source.

Assays:
MCF10A = test: MTT cytotoxicity assay, MCF10A non-tumour control cells; format: cell-based; settings: Homo sapiens, MCF-10A, read-out: IC50 MCF10A
Protocol: (§1) The antiproliferative activity of the resveratrol analogues was investigated using a human breast cell line panel, which has been characterised for CYP1 expression in our laboratories. IC50 values for both cis- and trans-isomers were determined using a standard 3-[4,5-dimethylthiazol-2-yl]-2,5-diphenyl tetrazolium bromide (MTT) cell viability assay and are shown in Table 1 (trans-stilbene analogues) and Table 2 (cis-stilbene analogues).
MCF10A cells are non-tumourigenic human mammary epithelial in origin which have been spontaneously immortalised without chemical intervention. CYP1 activity in MCF10A cells is negligible. […] Thus, MCF10A cell line is commonly used as a control in cytotoxicity assays.
(§2) A standard MTT (3-[4,5-dimethylthiazol-2-yl]-2,5-diphenyl tetrazolium bromide) cell viability assay was employed to evaluate the cytotoxicity of the stilbenes prepared. The MTT assay is a rapid quantitative spectrophotometric method for determining cell growth (viability) due to necrosis or apoptosis in monolayer-cultured cell lines in response to external factors. It is widely employed to evaluate the cytotoxicity of potential medicinal agents.
(§3) MCF7 cells were grown in RPMI-1640 medium with phenol red and 10% (v/v) heat-inactivated (heated to 56 °C for 45 min) foetal calf serum. MDA-468 cells were grown in RPMI-1640 medium with 10% (v/v) heat-inactivated foetal calf serum and L-glutamine (2 mM) without phenol red. MCF-10A cells were grown in Dulbecco’s modified Eagle’s medium/ Ham’s F-12 medium (1:1) with 5% (v/v) heat-inactivated foetal calf serum, epidermal growth factor (20 ng/mL), insulin ([…]) and hydrocortisone (500 ng/mL). Cells were maintained at 37 °C, 5% CO2/95% air with 100% humidity and passaged every 2–3 days using trypsin EDTA solution (0.25% w/v). Adhered cells at sub confluence were harvested for experimental use.
(§4) Aliquots of cell suspensions (100 µL at 2 × 10^3 cells per ml) were dispensed into sterile 96-well microtiter flat-bottomed plates. For the MDA468 and MCF10A cell lines, the plates were incubated at 37 °C, 5% CO2/95% air with 100% humidity for 24 h prior to the addition of test compounds. For MCF7 cells, after allowing approximately 4 h for cells to adhere, 100 µL of medium containing TCDD (from 100 mM stock in DMSO) or medium with 0.2% (v/v) DMSO was added to give a final concentration of 10 nM TCDD and 0.1% (v/v) DMSO. After 24 h, the medium was aspirated and replaced with fresh medium (100 µL) before the addition of test compounds.
(§5) Then, 100 µL aliquots of test compounds were added within 30 min into the wells from a 100 mM stock solution in DMSO and serially diluted to give final concentrations of […], 0.01, 0.003, 0.001 and 0.0003 µM. […] The cells were allowed to grow for 96 h at 5% CO2, 37 °C, to give 80–90% confluence in the control wells, after which 50 µL of 2 mg/mL MTT (final concentration 0.4 mg/mL) in sterile phosphate buffer was added to each well and the plates were further incubated for 2 h. All medium was aspirated and the formazan precipitate generated by viable cells was solubilised by 150 µL of DMSO. All the plates were vortexed and the absorbance at 540 nm was determined using a SpectraMax M5 plate reader (Molecular Devices, Wokingham, UK).
(§6) Results were expressed as a percentage of the control value versus the negative logarithm of the molar drug concentration range using GraphPad Prism (Version 5.00). Relative toxicities of each compound within each cell line were expressed as 50% of growth inhibition (IC50). All determinations were carried out in quadruplicate.

MCF7 = test: MTT cytotoxicity assay, MCF7 cells (uninduced); format: cell-based, human; settings: Homo sapiens, read-out: IC50 MCF7
Protocol: as §1
(§7) MCF7 cells are both ER positive and Ah receptor positive and have been well documented for their CYP1 expression, and it is known that treatment with TCDD elevates CYP1A1 and CYP1B1 expression. The cells were treated with DMSO (0.1%) for 24 h for constitutive expression, whereas for inducible CYP1 expression, the cells were treated with TCDD (10 nM) for 24 h.
as §2, §3, §4, §5, §6

[1] = system: CYP1 enzymes (CYP1A1, CYP1A2, CYP1B1); test: Incubation with human CYP1 Supersomes, HPLC analysis; format: in vitro ADME; settings: NADPH, 37 °C, 20 min
Protocol: The CYPs isozyme panel used in this study were prepared from transformed insect cells expressing human CYPs (CYP1A1, CYP1A2 or CYP1B1) with co-expression of human NADPH reductase (Supersomes^TM). […] The general procedure was as follows: DMU212 was separately incubated with CYP1A1, CYP1A2, CYP1B1, CYP3A4 and non-CYP-expressing Supersomes^TM in the presence of phosphate buffer and NADPH at 37 °C. Samples were taken at regular intervals of 5 min over a 20 min period, and the enzymatic reaction in the sample was terminated immediately. Following centrifugation, the supernatants were removed and analysed by HPLC.
After 10 min of analysis, a linear gradient was initiated with the acetonitrile content rising to 70% over 5 min and with the 50 mM ammonium acetate decreasing accordingly. An equilibration time of 6 min was allowed between each sample. Analysis was conducted with a Jasco (Jasco UK limited) analytical system consisting of an AS841 autosampler, PU980 pump and LG low-pressure tertiary mixing valve, FP1500 fluorescence detector (JASCO UK Ltd., Heckmondwike, UK), column heater/ chiller (Jones Chromatography), and DG440 in-line degasser (Phenomenex, UK). Analytical data were collected using Borwin HPLC software (version 1.5), For the detection of DMU215, an in-line photoreactivity cell was used (Beam Boost^TM, Advanced Separations Technology Incorporated).

MDA231 = test: MTT cytotoxicity assay, MDA231 cells; format: cell-based; settings: Homo sapiens, MDA-MB-231; triple negative breast tumour cell line
Protocol: DMU212 was also evaluated for cytotoxic activity in the aggressive, triple negative breast tumour cell line MDA231. This cell line has been reported to only weakly express CYP1A1 but constitutively express CYP1B1 [33]. […] However further studies would be required to confirm this statement.
MDA231 breast cancer cell line represents an aggressive tumour type. Treatment of this ER-negative and Ah receptor-positive cell line with TCDD has been reported to only weakly induce CYP1A1 mRNA expression but enhance the constitutive CYP1B1 expression. Other researchers have reported the ratio of active CYP1A1/CYP1B1 protein as 16/84 ratio in MDA231 [32].
as §2, with “It is widely employed to evaluate the cytotoxicity of potential medicinal agents.” left out
Then, 100 µL aliquots of test compounds were added within 30 min into the wells from a 100 mM stock solution in DMSO and serially diluted to give final concentrations of […], 0.01, 0.003, 0.001 and 0.0003 µM. […] All the plates were vortexed and the absorbance at 540 nm was determined using a SpectraMax M5 plate reader (Molecular Devices, Wokingham, UK). […]

MDA468 = test: MTT cytotoxicity assay, MDA468 cells; format: cell-based, human; settings: for pIC50: Homo sapiens, read-out: IC50 MDA468; for TS = tumour selectivity = IC50 MCF10A/IC50 MDA468: ratio of IC50 values
Protocol: as §1
MDA468 cells represent an aggressive multi-drug-resistant tumour type and are ER negative but are aryl hydrocarbon (Ah) receptor positive in the presence of TCDD [46].
as §2, §3, §4, §5, §6

MCF7 (TCDD) = test: MTT cytotoxicity assay, TCDD-induced MCF7 cells; format: cell-based, human; settings: Homo sapiens
Protocol: as §1, §7, §2, §3, §4, §5, §6

[2] = mouse, 0.2% (w/w) of the diet for 14 weeks; cited from earlier work
[3] = system: human breast cell line panel; test: MTT cytotoxicity assay, statements for all cell lines of the panel; format: cell-based; settings: MCF7, MCF7 (TCDD), MCF10A, MDA468, summary of the text; for pIC50: Homo sapiens, read-out: IC50 for all cell lines tested
Protocol: as §1, §2, §3, §4, §5, §6

[4] = 96 h, MTT assay, 96 h incubation, non-tumour control cells
[5] = MCF7, 96 h, MTT assay, 96 h incubation, 37 °C, means of quadruplicate
[6] = MCF7, MTT assay, 96 h incubation, cells induced with 10 nM TCDD for 24 h, read-out: IC50 MCF7 (TCDD)
[7] = MTT assay, 96 h incubation, non-tumour control cells
[8] = MCF7, MTT assay, 96 h incubation, 37 °C, means of quadruplicate

With `COc1ccc(/C=C/c2cc(OC)c(OC)c(OC)c2)cc1` [DMU212, (E)-4,3′,4′,5′-tetramethoxystilbene] the pIC50 (MCF10A; 96 h) was 5.37, the pIC50 (MCF7; MCF7, 96 h) was 5.59 and the “substrate for CYP1 enzymes” value [1] was “substrate for CYP1 enzymes”. For the same molecule, the pIC50 (MDA231) was < 4.00, the pIC50 (MDA468; 96 h) was 9.00 and the “TS = tumour selectivity = IC50 MCF10A/IC50 MDA468” value (MDA468) was “over 4000”. For the same molecule, the “TS = tumour selectivity = IC50 MCF10A/IC50 MDA468” value (MDA468; listed as 212) was 4300, the pIC50 (MCF7 (TCDD); MCF7, read-out: IC50 MCF7 (TCDD)) was 6.92 and the hepatotoxicity [2] was “without any obvious signs of hepatoxicity”. The “steady state level in the liver” value [2] was “up to 0.7 nmol/g tissue”.

For `COc1ccc(C=Cc2cc(OC)c(OC)c(OC)c2)cc1O` [DMU214, 3,4,5,4′-tetramethoxy-3′-hydroxy stilbene], the pIC50 (MCF10A; [4]) was 7.30, the pIC50 (MCF7; [5]) was 7.22 and the “IC50 for all cell lines tested” value [3] was “sub-micromolar IC50 values”. For the same molecule, the pIC50 (MDA468; MTT assay, 96 h incubation) was 7.30, the “TS = tumour selectivity = IC50 MCF10A/IC50 MDA468” value (MDA468) was 1 and the pIC50 (MCF7 (TCDD); [6]) was 6.96.

With `COc1cc(C=Cc2ccc(O)c(O)c2)cc(OC)c1OC` [DMU283, 3,4,5-trimethoxy-3′,4′-dihydroxy stilbene] the pIC50 (MCF10A; [4]) was 8.10, the pIC50 (MCF7; [5]) was 7.70 and the “IC50 for all cell lines tested” value [3] was “sub-micromolar IC50 values”. For the same molecule, the pIC50 (MDA468; MTT assay, 96 h incubation) was 7.30, the “TS = tumour selectivity = IC50 MCF10A/IC50 MDA468” value (MDA468) was 0.16 and the pIC50 (MCF7 (TCDD); [6]) was 6.85.

For `COc1cc(/C=C/c2ccccc2)cc(OC)c1OC` [DMU507], the pIC50 (MCF10A; [4]) was 4.15, the pIC50 (MCF7; [5]) was 4.30 and the pIC50 [3] was < 5.00. The pIC50 (MDA468; MTT assay, 96 h incubation) was 5.00, the “TS = tumour selectivity = IC50 MCF10A/IC50 MDA468” value (MDA468) was 7 and the pIC50 (MCF7 (TCDD); [6]) was 4.30.

Work on `COc1cc(/C=C\c2ccccc2)cc(OC)c1OC` [DMU508] yielded a pIC50 (MCF10A; [4]) of 5.15, a pIC50 (MCF7; [5]) of 5.30 and a pIC50 [3] of 5.05 to 5.40. The pIC50 (MDA468; MTT assay, 96 h incubation) was 5.05, the “TS = tumour selectivity = IC50 MCF10A/IC50 MDA468” value (MDA468) was 0.9 and the pIC50 (MCF7 (TCDD); [6]) was 5.40.

For `COc1cc(/C=C/c2ccc(OC)c3ccccc23)cc(OC)c1OC` [DMU569], the pIC50 (MCF10A; [7]) was 4.40, the pIC50 (MCF7; [8]) was 4.52 and the pIC50 (MDA468; MTT assay, 96 h incubation) was 5.35. For the same molecule, the “TS = tumour selectivity = IC50 MCF10A/IC50 MDA468” value (MDA468) was “nine”, the “TS = tumour selectivity = IC50 MCF10A/IC50 MDA468” value (MDA468; listed as 569) was 9 and the pIC50 (MCF7 (TCDD); [6]) was 5.07.

With `COc1ccc(/C=C\c2cc(OC)c(OC)c(OC)c2)cc1OC` [DMU1024] the pIC50 (MCF10A; [4]) was 5.00, the pIC50 (MCF7; [5]) was 5.05 and the pIC50 (MDA468; MTT assay, 96 h incubation) was 5.22. For the same molecule, the “TS = tumour selectivity = IC50 MCF10A/IC50 MDA468” value (MDA468) was 2 and the pIC50 (MCF7 (TCDD); [6]) was 5.05.

With `COc1ccc(/C=C/c2cc(OC)c(OC)c(OC)c2)cc1OC` [DMU2417] the pIC50 (MCF10A; [4]) was 4.74, the pIC50 (MCF7; [5]) was 4.85 and the pIC50 [3] was < 5.05. The pIC50 (MDA468; MTT assay, 96 h incubation) was 5.05, the “TS = tumour selectivity = IC50 MCF10A/IC50 MDA468” value (MDA468) was 2 and the pIC50 (MCF7 (TCDD); [6]) was 4.85.

`Oc1ccc(/C=C/c2cc(O)cc(O)c2)cc1` [Resveratrol, (E)-4,3′,5′-trihydroxy stilbene] gave a pIC50 (MCF10A; [7]) of 4.30, a pIC50 (MCF7; [8]) of 4.51 and a pIC50 (MDA468; MTT assay, 96 h incubation) of 4.54. The “TS = tumour selectivity = IC50 MCF10A/IC50 MDA468” value (MDA468) was 1.7 and the pIC50 (MCF7 (TCDD); [6]) was 4.48.
